# Data: ChEMBL document CHEMBL1201862, “PubChem BioAssay data set” (2004)
# The source made the active and inactive calls.
# Legend:
# BJ [1] = assay: cytotoxicity toward BJ-TERT-LT-ST fibroblasts, dose response, cell-based, RAS-independent, luminescence (AID 1935); format: functional; conditions: Homo sapiens;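 further: BJ fibroblasts immortalized with TERT plus LT and ST oncogenes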
# [2] = cytotoxicity toward DRD oncogenic fibroblasts, dose response, cell-based, non-viral oncogenic, luminescence (AID 1934); format: functional; conditions: Homo sapiens
# [3] = CFTR ΔF508 corrector activity in bronchial cells, dose response, human bronchial epithelial cells, plate reader, cherry-pick, two tests (AID 743267); format: functional, cell-based
# BJ [4] = assay: cells; format: functional, cell-based; conditions: Homo sapiens
# BJ [5] = assay: cytotoxicity toward BJ-TERT fibroblasts, dose response, cell-based, RAS-independent, luminescence (AID 1933); format: functional; conditions: Homo sapiens
# [6] = target: Heat shock cognate 71 kDa protein (Homo sapiens, UniProt P11142); assay: In Vitro Hsc70 Dose Response Fluorescence Polarization Assay. [Related pubchem assays: 1072 ]
# [7] = target: T1, Small ubiquitin-related modifier 2 (Homo sapiens, UniProt P61956); assay: inhibitors of SUMO2 protein-protein interaction, dose response, selectivity assay for SUMO1 interaction inhibitor project, biochemical, FRET, human SUMO2, uHTS hits (AID 624384); format: functional; conditions: read-out: IC50_Mean
# [8] = target: Glyceraldehyde-3-phosphate dehydrogenase (Homo sapiens, UniProt P04406)
# [9] = target: T2, Tyrosine-protein phosphatase non-receptor type 7 (Homo sapiens, UniProt P35236); format: functional
# T2 sequence (P35236 whole entry): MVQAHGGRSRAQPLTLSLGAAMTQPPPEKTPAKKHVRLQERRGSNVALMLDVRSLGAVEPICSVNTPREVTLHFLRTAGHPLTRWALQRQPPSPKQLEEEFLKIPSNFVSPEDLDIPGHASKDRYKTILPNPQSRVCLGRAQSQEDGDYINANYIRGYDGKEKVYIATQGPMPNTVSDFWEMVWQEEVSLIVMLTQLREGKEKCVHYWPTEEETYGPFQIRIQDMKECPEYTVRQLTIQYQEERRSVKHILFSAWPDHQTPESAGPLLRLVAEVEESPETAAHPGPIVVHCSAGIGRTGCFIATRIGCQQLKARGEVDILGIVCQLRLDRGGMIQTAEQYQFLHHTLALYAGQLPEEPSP
# NS3 = NS3 (Hepatitis C virus, UniProt A3EZJ3); assay: PubChem AID 2173; set-up: species or system Hepacivirus hominis
# [10] = target: T3, Rac GTPase-activating protein 1 (Homo sapiens, UniProt Q9H0H5); assay: MgcRacGAP GTPase-activating activity inhibitors, confirmation, biochemical, ADP Hunter fluorescence, primary and confirmatory (AID 624330); format: functional
# T3 sequence (Q9H0H5 whole entry): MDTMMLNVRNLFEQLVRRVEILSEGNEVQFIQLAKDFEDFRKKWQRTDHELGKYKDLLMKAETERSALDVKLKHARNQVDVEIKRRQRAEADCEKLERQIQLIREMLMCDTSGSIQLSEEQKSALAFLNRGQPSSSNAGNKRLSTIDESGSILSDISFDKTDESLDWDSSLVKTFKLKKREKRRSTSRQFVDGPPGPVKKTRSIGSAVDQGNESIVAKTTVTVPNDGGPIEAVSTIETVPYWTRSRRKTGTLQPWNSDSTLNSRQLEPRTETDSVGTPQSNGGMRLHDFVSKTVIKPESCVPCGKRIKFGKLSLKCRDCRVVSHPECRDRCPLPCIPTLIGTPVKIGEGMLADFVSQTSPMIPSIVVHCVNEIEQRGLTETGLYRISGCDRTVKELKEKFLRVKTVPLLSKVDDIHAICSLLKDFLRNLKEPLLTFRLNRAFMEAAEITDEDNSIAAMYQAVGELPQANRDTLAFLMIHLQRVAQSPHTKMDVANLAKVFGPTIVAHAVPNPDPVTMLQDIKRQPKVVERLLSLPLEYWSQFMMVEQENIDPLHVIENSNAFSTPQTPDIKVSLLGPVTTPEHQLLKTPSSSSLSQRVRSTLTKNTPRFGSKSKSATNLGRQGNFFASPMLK
# [11] = target: T4, Small ubiquitin-related modifier 1 (Homo sapiens, UniProt P63165); assay: inhibitors of SUMO1 peptide binding, dose response, biochemical, fluorescence polarization, uHTS hits (AID 624382); format: functional; conditions: read-out: IC50_Mean
# [12] = target: T5, Dual specificity protein phosphatase 6 (Rattus norvegicus, UniProt Q64346)
# T5 sequence (Q64346 whole entry): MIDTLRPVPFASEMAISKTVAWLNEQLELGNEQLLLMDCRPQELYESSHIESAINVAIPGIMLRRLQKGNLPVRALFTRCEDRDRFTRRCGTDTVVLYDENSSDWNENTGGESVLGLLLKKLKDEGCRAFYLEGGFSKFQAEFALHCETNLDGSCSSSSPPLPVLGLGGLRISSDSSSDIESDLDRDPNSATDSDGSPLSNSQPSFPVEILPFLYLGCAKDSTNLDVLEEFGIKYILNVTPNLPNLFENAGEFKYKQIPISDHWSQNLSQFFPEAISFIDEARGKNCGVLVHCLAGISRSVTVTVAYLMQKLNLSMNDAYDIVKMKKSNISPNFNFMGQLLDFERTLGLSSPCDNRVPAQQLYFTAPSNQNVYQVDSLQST
# [13] = target: Heat shock 70 kDa protein 1A (Homo sapiens, UniProt P0DMV8); assay: Hsp70 inhibitors, SAR follow-up, biochemical, fluorescence polarization (AID 1072)
# HeLa = assay: HeLa cell cytotoxicity, dose response, cytotoxicity control, 24 h, cherry-picked samples (AID 504726); format: functional, cell-based; conditions: Homo sapiens;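 further: potency for cytotoxicity as loss of luminescence signal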
# [14] = target: T5, Dual specificity protein phosphatase 6; format: functional
# ORF 73 = target: T6, ORF 73 (Human herpesvirus 8, UniProt O40947); assay: inhibitors of C-LANA binding to LBS DNA, dose response, biochemical, fluorescence polarization, cherry-picked samples (AID 504725); set-up: species or system Human gammaherpesvirus 8;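 further: fluorescence polarization of a labeled DNA duplex reporting LANA DNA binding; potency is for inhibitors that block LANA binding to the DNA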
# T6 sequence (O40947 whole entry): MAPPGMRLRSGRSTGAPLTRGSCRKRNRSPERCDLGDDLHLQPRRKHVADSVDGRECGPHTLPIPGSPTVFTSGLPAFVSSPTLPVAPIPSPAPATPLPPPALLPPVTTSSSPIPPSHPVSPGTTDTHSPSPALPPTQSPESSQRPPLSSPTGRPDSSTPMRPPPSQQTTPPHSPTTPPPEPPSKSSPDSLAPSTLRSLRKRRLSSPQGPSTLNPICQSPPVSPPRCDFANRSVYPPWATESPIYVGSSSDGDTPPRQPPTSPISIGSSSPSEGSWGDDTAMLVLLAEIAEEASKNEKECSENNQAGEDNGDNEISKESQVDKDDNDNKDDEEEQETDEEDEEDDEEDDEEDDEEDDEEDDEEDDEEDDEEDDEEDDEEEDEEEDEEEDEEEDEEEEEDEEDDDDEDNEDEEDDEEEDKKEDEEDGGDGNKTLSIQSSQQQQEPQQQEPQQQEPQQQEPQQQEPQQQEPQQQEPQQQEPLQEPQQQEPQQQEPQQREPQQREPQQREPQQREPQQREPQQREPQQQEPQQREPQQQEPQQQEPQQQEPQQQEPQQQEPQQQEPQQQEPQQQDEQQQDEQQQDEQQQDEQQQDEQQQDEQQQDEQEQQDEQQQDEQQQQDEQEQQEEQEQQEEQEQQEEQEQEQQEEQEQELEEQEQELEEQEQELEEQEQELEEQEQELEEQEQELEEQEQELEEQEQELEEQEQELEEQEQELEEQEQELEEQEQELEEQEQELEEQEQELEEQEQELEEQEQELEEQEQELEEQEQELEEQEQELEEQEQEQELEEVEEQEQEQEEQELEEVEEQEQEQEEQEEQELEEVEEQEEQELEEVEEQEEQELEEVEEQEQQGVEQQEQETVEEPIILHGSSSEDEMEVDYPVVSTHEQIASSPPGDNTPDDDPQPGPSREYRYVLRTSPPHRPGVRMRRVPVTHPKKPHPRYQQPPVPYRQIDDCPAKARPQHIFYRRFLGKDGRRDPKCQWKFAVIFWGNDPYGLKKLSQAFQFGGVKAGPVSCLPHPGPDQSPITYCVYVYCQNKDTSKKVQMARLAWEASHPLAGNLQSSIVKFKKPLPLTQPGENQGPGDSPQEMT
# [15] = target: T4, Small ubiquitin-related modifier 1; assay: inhibitors of SUMO1 partner interactions, dose response, biochemical, FRET (AID 624383); format: functional; conditions: read-out: IC50_Mean
# Large T antigen = Large T antigen (Simian virus 40, UniProt P03070); format: functional, Betapolyomavirus macacae;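 further: Confirmatory-stage PubChem screen for compounds that inhibit SV40 T antigen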
# [16] = target: T1, Small ubiquitin-related modifier 2; assay: SUMO2–SIM peptide binding inhibitors, dose response, selectivity assay for SUMO1 interaction inhibitor project, biochemical, fluorescence polarization, uHTS hits (AID 624385); format: functional; conditions: read-out: IC50_Mean
# [17] = target: T7, Zinc finger protein mex-5 (Caenorhabditis elegans, UniProt Q9XUB2); assay: MEX-5/TCR-2 RNA interaction inhibitors, dose response, biochemical, C. elegans, fluorescence polarization (AID 1960)
# T7 sequence (Q9XUB2 whole entry): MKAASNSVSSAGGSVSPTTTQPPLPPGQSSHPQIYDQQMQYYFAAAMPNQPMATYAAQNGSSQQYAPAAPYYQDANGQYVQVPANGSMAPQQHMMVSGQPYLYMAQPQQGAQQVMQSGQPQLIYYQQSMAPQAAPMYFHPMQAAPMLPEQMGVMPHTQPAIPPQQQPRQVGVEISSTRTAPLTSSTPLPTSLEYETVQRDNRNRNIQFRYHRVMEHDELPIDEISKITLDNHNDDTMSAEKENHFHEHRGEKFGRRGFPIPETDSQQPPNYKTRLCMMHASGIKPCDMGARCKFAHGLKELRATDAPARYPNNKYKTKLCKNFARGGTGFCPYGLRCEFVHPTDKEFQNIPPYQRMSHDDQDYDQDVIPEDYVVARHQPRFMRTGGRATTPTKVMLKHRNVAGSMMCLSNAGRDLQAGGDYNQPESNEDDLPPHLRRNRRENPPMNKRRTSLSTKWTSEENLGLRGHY
# [18] = target: 5-hydroxytryptamine receptor 2A (Mus musculus, UniProt P35363); format: functional, cell-based;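 further: CHO-K1 cells with tagged receptor and beta-arrestin; agonist potency measured as compound-induced activation of the receptor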
# [19] = target: T8, RNA-binding protein pos-1 (Caenorhabditis elegans, UniProt G5EF15); assay: inhibitors of POS-1/mex-3 RNA binding, dose response, biochemical, fluorescence polarization (AID 1964);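 further: purified POS-1 fused to maltose binding protein made in E. coli; potency of compounds blocking POS-1 binding to fluorescent RNA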
# T8 sequence (G5EF15 whole entry): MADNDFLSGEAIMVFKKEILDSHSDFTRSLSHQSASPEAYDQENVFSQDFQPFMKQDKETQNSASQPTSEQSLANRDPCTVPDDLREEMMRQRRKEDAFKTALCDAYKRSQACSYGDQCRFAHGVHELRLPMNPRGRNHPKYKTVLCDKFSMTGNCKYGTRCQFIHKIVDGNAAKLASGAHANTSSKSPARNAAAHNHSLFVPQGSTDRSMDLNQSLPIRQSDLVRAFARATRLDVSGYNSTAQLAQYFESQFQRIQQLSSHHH
# Mu-type opioid receptor = Mu-type opioid receptor (Homo sapiens, UniProt P35372); format: functional, cell-based;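 further: U2OS cells with beta-arrestin recruitment to OPRM1 by beta-gal complementation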
# Vero = assay: Vero cell toxicity, dose response, cytotoxicity control, plate reader, cherry-pick samples (AID 687020); format: functional, cell-based; conditions: Chlorocebus sabaeus
# T1 sequence (P61956 whole entry): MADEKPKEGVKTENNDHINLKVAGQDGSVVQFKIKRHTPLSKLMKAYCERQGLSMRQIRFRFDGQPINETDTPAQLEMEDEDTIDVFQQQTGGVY
# T4 sequence (P63165 whole entry): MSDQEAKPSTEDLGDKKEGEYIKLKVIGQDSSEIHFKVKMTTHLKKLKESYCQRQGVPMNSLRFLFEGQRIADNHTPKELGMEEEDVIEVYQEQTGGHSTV
# Sequence of Large T antigen (P03070 whole entry): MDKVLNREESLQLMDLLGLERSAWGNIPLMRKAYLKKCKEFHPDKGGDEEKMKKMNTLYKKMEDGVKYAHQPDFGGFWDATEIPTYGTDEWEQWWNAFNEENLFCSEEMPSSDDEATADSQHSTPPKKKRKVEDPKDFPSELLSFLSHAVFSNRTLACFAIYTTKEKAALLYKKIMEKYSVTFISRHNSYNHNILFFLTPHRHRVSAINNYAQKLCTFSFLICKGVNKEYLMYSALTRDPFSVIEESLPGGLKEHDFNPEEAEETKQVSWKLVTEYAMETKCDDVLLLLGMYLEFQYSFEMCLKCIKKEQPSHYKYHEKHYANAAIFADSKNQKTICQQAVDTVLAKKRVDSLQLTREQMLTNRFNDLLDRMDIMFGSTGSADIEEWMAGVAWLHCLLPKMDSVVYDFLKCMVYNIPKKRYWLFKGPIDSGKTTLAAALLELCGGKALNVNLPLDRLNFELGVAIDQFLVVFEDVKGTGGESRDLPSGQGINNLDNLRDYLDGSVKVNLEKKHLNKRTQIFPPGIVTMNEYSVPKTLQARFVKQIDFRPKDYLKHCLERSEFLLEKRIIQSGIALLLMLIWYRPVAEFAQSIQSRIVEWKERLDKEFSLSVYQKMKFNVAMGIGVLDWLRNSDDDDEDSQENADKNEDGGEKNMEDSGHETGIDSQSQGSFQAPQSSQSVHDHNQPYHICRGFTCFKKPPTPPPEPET
# Sequence of Mu-type opioid receptor (P35372 whole entry): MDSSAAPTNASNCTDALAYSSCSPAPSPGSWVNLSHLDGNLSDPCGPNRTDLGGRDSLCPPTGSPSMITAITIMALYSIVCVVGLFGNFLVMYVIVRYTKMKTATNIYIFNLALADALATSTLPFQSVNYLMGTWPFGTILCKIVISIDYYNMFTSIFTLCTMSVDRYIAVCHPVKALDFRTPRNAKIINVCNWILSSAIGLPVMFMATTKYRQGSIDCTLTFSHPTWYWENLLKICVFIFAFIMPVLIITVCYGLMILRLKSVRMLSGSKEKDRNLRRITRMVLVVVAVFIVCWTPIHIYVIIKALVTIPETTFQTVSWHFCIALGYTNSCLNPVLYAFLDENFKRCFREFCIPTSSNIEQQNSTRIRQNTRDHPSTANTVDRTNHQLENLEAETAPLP
# Sequence of Heat shock 70 kDa protein 1A (P0DMV8 whole entry): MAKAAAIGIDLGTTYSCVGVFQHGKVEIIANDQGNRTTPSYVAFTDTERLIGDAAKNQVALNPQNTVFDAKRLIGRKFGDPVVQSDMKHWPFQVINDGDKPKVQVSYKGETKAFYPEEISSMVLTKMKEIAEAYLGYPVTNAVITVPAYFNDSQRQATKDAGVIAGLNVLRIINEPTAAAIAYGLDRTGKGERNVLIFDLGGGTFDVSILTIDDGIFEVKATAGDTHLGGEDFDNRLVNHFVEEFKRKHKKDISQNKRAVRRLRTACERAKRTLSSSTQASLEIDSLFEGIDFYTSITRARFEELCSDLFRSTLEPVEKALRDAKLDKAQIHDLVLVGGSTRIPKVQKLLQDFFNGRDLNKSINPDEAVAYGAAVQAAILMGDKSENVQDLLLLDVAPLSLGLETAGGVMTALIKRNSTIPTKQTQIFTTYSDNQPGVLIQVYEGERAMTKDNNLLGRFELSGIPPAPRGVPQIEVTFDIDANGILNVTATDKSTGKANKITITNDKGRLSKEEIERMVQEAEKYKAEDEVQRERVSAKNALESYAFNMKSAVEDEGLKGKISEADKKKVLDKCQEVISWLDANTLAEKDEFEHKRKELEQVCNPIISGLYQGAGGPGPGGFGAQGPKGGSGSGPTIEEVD
# Sequence of NS3 (A3EZJ3 whole entry): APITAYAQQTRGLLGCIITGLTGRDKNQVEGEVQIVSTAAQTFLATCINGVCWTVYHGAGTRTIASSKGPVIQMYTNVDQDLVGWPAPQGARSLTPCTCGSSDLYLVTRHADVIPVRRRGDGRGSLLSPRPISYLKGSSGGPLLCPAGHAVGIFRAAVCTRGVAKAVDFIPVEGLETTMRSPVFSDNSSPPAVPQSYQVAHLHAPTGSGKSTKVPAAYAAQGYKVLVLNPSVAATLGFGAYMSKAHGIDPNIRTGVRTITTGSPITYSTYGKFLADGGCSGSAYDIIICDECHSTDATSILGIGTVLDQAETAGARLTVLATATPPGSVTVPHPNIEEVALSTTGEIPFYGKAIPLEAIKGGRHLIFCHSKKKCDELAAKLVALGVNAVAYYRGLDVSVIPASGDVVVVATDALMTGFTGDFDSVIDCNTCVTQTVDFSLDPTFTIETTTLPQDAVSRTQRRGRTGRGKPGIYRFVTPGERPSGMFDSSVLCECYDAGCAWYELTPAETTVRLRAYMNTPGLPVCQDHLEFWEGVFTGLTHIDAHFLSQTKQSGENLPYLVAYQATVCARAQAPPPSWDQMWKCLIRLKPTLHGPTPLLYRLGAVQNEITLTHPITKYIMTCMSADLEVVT
# Sequence of Heat shock cognate 71 kDa protein (P11142 whole entry): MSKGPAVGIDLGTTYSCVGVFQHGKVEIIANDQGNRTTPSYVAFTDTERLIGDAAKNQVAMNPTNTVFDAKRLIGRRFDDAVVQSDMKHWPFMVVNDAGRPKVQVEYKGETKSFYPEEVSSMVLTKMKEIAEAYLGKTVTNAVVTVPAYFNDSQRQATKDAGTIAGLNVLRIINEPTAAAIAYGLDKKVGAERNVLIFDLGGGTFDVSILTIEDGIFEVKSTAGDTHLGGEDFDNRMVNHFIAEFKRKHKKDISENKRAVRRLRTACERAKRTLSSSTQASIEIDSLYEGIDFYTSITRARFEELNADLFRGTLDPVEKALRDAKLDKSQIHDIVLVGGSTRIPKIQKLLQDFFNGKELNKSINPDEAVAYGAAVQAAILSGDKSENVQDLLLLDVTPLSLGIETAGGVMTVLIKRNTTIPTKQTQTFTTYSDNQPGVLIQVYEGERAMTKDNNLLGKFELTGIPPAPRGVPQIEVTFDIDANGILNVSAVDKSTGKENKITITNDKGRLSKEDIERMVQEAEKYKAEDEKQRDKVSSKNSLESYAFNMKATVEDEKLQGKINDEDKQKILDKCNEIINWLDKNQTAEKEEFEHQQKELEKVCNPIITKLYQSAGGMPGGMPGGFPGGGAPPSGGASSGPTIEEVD
# Sequence of 5-hydroxytryptamine receptor 2A (P35363 whole entry, the tested form may be a part): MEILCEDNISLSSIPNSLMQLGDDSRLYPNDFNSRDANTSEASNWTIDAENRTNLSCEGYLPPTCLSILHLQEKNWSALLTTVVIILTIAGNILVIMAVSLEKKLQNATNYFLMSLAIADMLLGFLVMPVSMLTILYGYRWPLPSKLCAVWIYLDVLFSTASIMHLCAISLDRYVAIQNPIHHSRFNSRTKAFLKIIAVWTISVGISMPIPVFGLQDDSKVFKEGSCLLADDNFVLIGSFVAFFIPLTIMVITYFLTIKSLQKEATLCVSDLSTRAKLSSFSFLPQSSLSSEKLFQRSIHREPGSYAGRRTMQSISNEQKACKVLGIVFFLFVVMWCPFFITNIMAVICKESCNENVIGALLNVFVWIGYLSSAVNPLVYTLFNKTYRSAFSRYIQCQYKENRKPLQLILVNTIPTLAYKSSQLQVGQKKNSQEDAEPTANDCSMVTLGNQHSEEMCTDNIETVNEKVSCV
# Sequence of Glyceraldehyde-3-phosphate dehydrogenase (P04406 whole entry): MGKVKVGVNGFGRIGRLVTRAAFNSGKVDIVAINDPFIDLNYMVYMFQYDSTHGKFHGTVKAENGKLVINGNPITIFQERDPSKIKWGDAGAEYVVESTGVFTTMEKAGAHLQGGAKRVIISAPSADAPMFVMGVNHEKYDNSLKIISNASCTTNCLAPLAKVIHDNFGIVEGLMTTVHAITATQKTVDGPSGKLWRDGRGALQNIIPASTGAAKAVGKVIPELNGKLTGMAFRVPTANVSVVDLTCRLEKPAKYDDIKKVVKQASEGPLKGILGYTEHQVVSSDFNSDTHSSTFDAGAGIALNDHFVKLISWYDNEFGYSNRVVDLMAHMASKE
structure (smiles),measurement,setting,value
COc1ccccc1NC1=C(C(N)=O)C(=N)C(C(=O)Nc2cccc(Cl)c2Cl)S1 (stereo not given),EC50,BJ [1],22.3 µM (active)
same,EC50,[2],4.27 µM (active)
same,AC50,[3],6.08 µM (active)
same,EC50,BJ [4],33.3 µM (inconclusive)
same,EC50,BJ [5],14.5 µM (active)
Cc1cc(C)c2c(c1)NC(C(=O)O)C1CC=CC21 (stereo not given),IC50,[6],> 100 µM (not active)
same,IC50,[7],3.69 µM (active)
same,IC50,[8],91.4 µM (active)
same,IC50,[9],> 100 µM (not active)
same,IC50,NS3,3.67 µM (active)
same,IC50,[10],171 µM (active)
same,IC50,[11],4.97 µM (active)
same,IC50,[12],41.3 µM (active)
same,IC50,[13],> 100 µM (not active)
same,AC50,HeLa,264 µM (active)
same,IC50,[14],46.1 µM (active)
same,AC50,ORF 73,61.2 µM (active)
same,IC50,[15],22.8 µM (inactive)
same,IC50,Large T antigen,26.8 µM (active)
same,IC50,[16],13.4 µM (active)
Cc1ccccc1-c1ccc(/C=C2/SC(N3CCOCC3)=NC2=O)o1,EC50,[17],69.6 µM (active)
same,EC50,[18],6.39 µM (active)
same,EC50,[19],26.1 µM (inconclusive)
same,EC50,Mu-type opioid receptor,92.5 µM (inactive)
C=CCOc1ccccc1CN1CCC(Cc2ccccc2)CC1,AC50,Vero,35 µM (active)
